Experimental findings from patent US20070026090A1, “Treatment and prevention of inflammatory disease and mitochondrial dysfunction with high dose selenium” (priority 2003, published 2007) are described below.

What all share (assay type): cell-based, murine
Assay [1] has as its system MnSOD. Description: MnSOD transcription and expression (RTPCR, Western blot). As to the method:
(§1) Cell culture: Murine J774.2 macrophages (kindly provided by Prof. Dov Zipori from the Weizmann Institute of Science) were grown in RPMI medium supplemented with 10% (w/v) fetal calf serum, penicillin (100 U/ml), streptomycin (100 μg/ml) and 1× glutamine at 37° C. in a humidified atmosphere consisting of 95% air and 5% CO2. Experiments were performed on cells at 60% confluence.
(§2) Western blots (Sp1, MnSOD, UCP2): Cells were grown in six-well tissue culture plates, treated with selenium for 72 h and activated with LPS and IFN-γ for 24 h. The wells were washed with PBS, scraped and centrifuged
(§3) (5 min. 2000 RPM), and lysed by addition of boiling hot lysis buffer (1% SDS, 1 mM sodium ortho-vanadate, 10 mM Tris pH 7.4) to the pellets. Protein content was measured (BIO RAD protein assay kit) and equalized. Sample buffer (containg SDS) was added and the samples were boiled. The samples were subjected to SDS-PAGE followed by western blot analysis. Separated proteins were transferred electrophoretically from the gel to a nitrocellulose membrane (Amersham International plc, Buckinghamshire, ENGLAND). The membrane was blocked in TBS (0.15 M NaCl/10 mM Tris/HCl, pH7.4) containing 5% (v/v) skimmed milk (Blotto), then incubated over night with primary antibodies at RT (diluted 1/2000 in blotto). After being washed six times in TBST [TBS containing 0.05% (v/v) Tween 20], the membrane was incubated for 2 h at room temperature with secondary antibody (diluted 1/5000 in blotto). Immunoreactive bands were detected with ECL western blotting detection reagents (Amersham Pharmacia Biotech, Buckingammshire England) and developed on film (Fuji super RX, Dusseldorf, Germany). […]
Right (antisense) 5′[…]-3′ (SEQ ID NO: 6) corresponding to nucleotides 622 to 640 of mouse mRNA region (GenBank Accession No. NM 013671). […] Actual PCR product was approximately 570 bp, measured on 1.25% agarose gel in TAE containing ethidium bromide.
(§4) PCR was performed with 28 cycles (25 cycles for GAPDH) of 30 seconds at 96° C., 30 seconds at 58° C. and 1 min at 72° C. RTPCR products were analyzed on 1.3% (w/v) agarose gels.

Assay [2] deals with UCP2. Description: UCP2 transcription and expression (RTPCR, Western blot). As to the method: as §1, §2
(5 min. 2000 RPM), and lysed by addition of boiling hot lysis buffer (1% SDS, 1 mM sodium ortho-vanadate, 10 mM Tris pH 7.4) to the pellets. Protein content was measured (BIO RAD protein assay kit) and equalized. Sample buffer (containg SDS) was added and the samples were boiled. The samples were subjected to SDS-PAGE followed by western blot analysis. Separated proteins were transferred electrophoretically from the gel to a nitrocellulose membrane (Amersham International plc, Buckinghamshire, ENGLAND). The membrane was blocked in TBS (0.15 M NaCl/10 mM Tris/HCl, pH7.4) containing 5% (v/v) skimmed milk (Blotto), then incubated over night with primary antibodies at RT (diluted 1/2000 in blotto). After being washed six times in TBST [TBS containing 0.05% (v/v) Tween 20], the membrane was incubated for 2 h at room temperature with secondary antibody (diluted 1/5000 in blotto). Immunoreactive bands were detected with ECL western blotting detection reagents (Amersham Pharmacia Biotech, Buckingammshire England) and developed on film (Fuji super RX, Dusseldorf, Germany). Primary antibodies for Sp1 and MnSOD were from BD Transduction Laboratories (Becton Dickenson and Co., San Jose, Calif. USA) and for UCP2 from Alpha Diagnostics LTD (Warszaw, Poland). Secondary antibodies were from Jackson ImmunoResearch (Jackson Labs, Bar Harbor, Maine, USA).
Reverse transcriptase-PCR (RTPCR): Total RNA was prepared and isolated by the Tri-Reagent method according to the manufacturer's protocol (Sigma, St. Louis Mo., USA). Total RNA (1 μg) was converted into cDNA using Reverse-iT first strand synthesis kit (Abgene, UK). Amplification of MnSOD and UCP2 sequences was performed by incubating 10 ng equivalents of DNA with the following oligonucleotide primers:
Left (sense), 5′-[…]-3′ (SEQ ID NO:7) corresponding to nucleotides 372 to 392 of mouse mRNA (GenBank Accession No. NM 011671).
Right (antisense) 5′[…]-3′ (SEQ ID NO: 8) corresponding to nucleotides 826 to 846 of mouse mRNA (GenBank Accession No. NM 011671). The expected PCR product was 474 bp. Actual PCR product was approximately 474 bp, measured on 1.25% agarose gel in TAE containing ethidium bromide.
as §4

Assay [3] has as its system Sp1. Put plainly: Sp1 binding activity of nuclear extracts of treated macrophages (EMSA). As to the method:
as §1
Nuclear extracts: Nuclear Extracts were prepared using a slight modification of the method of Dignam et al (23). Treated cells were washed with cold PBS, scraped and centrifuged. Hypotonic buffer (1 ml, 20 mM HEPES pH 7.0, 10 mM KCl, 1 mM mGCl2, 0.5 mM DTT, 0.1% Triton X-100, 20% glycerol, 2 mM PMSP, 1 mg/ml Aprotonin and Leupeptin) was added to the cell pellets, the pellets were disrupted by pipetting, and centrifuged 3000 RPM for 5 min. The pellets were re-suspended in 100 μl cold extraction buffer (20 mM HEPES pH 7.0, 10 mM KCl, 1 mM mGCl2, 0.5 mM DTT, 0.1% Triton X-100, 20% glycerol, 2 mM PMSF, 1 mg/ml Aprotonin and Leupeptin, 420 mM NaCl). The samples were rotated for 20 min at 4° C., centrifuged 15,000 RPM for 10 min, and supernatants collected. Protein content was measured using Bradford reagent. Samples were stored frozen at minus 70° C.
Electromobility shift assay (EMSA)—Gel shift assays were performed according to the gel shift assay protocol from Promega Corp. (San Luis Obispo, Calif.). A 22-mer double-stranded NF-κB consensus oligonucleotide 5′-[…]-3′ (SEQ ID NO:3), and Sp1 consensus oligonucleotide 5′-[…]-3(SEQ ID NO:4), were labeled with 32P. For each reaction, 2 μg of nuclear extract were incubated with 2 μl of 5× binding buffer for 5 min., 1 μl of the ^32P-labeled oligonucleotide was added at room temperature for 20 min., the samples were prepared by adding 1 μl of dye free loading buffer, and separated using 6% non-denaturing acrylamide gel electrophoresis. The gel was dried and exposed to a phosphoimaging screen for 18 hours and then visualized with a phosphoimager. For specificity, 1 μl of unlabeled consensus oligonucleotide was used to compete with the labeled probe.

The test system of assay [4] is Sp1. Put plainly: Sp1 protein (Western blot). The conditions noted are these: FIG. 13B. As to the method:
as §2, §3

In assay [5] the test system is J774.2 macrophages. Put plainly: Cell viability (PI exclusion, flow cytometry). The conditions noted are these: 10 μM, activated cells. As to the method: Experiments were performed on cells at 60% confluence.
Determination of cell viability: Cell-membrane integrity was detected by flow cytometer (FACSort, Becton Dickenson and Co., San Jose, Calif. USA) as a measurement of cell viability. For this assay, the nonpermeant DNA-intercalating dye propidium iodide (PI), which is excluded by viable cells, was used. Fluorescence settings were excitation at 488 nm and emission at 575 nm. Data were collected from at least 10,000 cells.

The mark [6] stands for this setting: exposure (72 hours) prior to activation, concentration dependent (FIG. 11).

Consider `[Se]` [selenium], for which, in assay [1] (24 and 72 hours, resting J774.2 (FIG. 9A, 9B)), the “lowest concentration effective in significantly reducing MnSOD transcripts and protein” value turned out to be 0.5 µM. In addition, in assay [1] (setting [6]), the “MnSOD expression, activated macrophages” value is on record as “decreased”. Also, in assay [2] (24 or 72 hours, concentration dependent, to a lesser extent than MnSOD), the “UCP2 transcripts and protein” value was “reduced the abundance”. For the same molecule, in assay [2] (setting [6]), the “UCP2 expression, activated macrophages” value is given as “decreased”. Further, in assay [3] (72 hours, then 6 hours LPS + INFγ, range 0.5-5 μM (FIG. 13A lower panel)), the “lowest concentration with dramatic effect on Sp-1 binding, activated macrophages” value worked out at 5 µM. The “lowest concentration with dramatic effect on Sp-1 binding, resting macrophages” value in assay [3] (72 hours, unactivated (FIG. 13A upper panel)) was determined as 5 µM. Besides, in assay [3] (concentration-dependent (FIG. 13A)), the “binding of Sp-1, activated macrophages” value is on record as “dramatically reduced”. Moreover, the “Sp-1 gene expression / synthesis (Western blot)” value in assay [4] is “no change”. The “cell survival, simultaneous selenium exposure and activation” value in assay [5] (from 75% without selenium (FIG. 14A)) came out at 35%. Further, the “cell survival, selenium following activation by 24 hours” value in assay [5] (from 75% without selenium (FIG. 14B)) stood at 55%.
